In patent publication US20100144710A1, “Piperazine and Piperidine MGLUR5 Potentiators” (ASTRAZENECA AB, priority 2007, published 2010):

What follows are molecules tested against T1, human mGluR5d (Homo sapiens, UniProt P41594) (assay: intracellular calcium [Ca2+]i mobilization (FLIPR) functional assay in cells expressing mGluR5). Settings: potentiators of mGluR5; 'assays described herein', assay not specified (FLIPR or IP3 turnover).
T1 construct: expressed in transfected cells
Assay type: cell-based
Excerpt: The pharmacological properties of the compounds of the invention can be analyzed using standard assays for functional activity. Examples of glutamate receptor assays are well known in the art as described in for example Aramori et al., Neuron 8:757 (1992), Tanabe et al., Neuron 8:169 (1992), Miller et al., J. Neuroscience 15: 6103 (1995), Balazs, et al., J. Neurochemistry 69:151 (1997). The methodology described in these publications is incorporated herein by reference. Conveniently, the compounds of the invention can be studied by means of an assay that measures the mobilization of intracellular calcium, [Ca^2+]i in cells expressing mGluR5.
Intracellular calcium mobilization was measured by detecting changes in fluorescence of cells loaded with the fluorescent indicator fluo-3. Fluorescent signals were measured using the FLIPR system (Molecular Devices). A two addition experiment was used that could detect compounds that either activate or antagonize the receptor.
For FLIPR analysis, cells expressing human mGluR5d were seeded on collagen coated clear bottom 96-well plates with black sides and analysis of [Ca^2+]i mobilization was done 24 hours after seeding.
FLIPR experiments were performed using a laser setting of 0.800 W and a 0.4 second CCD camera shutter speed. Each FLIPR experiment was initiated with 160 μL of buffer present in each well of the cell plate. After each addition of the compound, the fluorescence signal was sampled 50 times at 1 second intervals followed by 3 samples at 5 second intervals. Responses were measured as the peak height of the response within the sample period.
EC50 and IC50 determinations were made from data obtained from 8-point concentration response curves (CRC) performed in duplicate. Agonist CRC were generated by scaling all responses to the maximal response observed for the plate. Antagonist block of the agonist challenge was normalized to the average response of the agonist challenge in 14 control wells on the same plate.

T1 sequence (P41594 21-942 isoform P41594-3 limits assumed): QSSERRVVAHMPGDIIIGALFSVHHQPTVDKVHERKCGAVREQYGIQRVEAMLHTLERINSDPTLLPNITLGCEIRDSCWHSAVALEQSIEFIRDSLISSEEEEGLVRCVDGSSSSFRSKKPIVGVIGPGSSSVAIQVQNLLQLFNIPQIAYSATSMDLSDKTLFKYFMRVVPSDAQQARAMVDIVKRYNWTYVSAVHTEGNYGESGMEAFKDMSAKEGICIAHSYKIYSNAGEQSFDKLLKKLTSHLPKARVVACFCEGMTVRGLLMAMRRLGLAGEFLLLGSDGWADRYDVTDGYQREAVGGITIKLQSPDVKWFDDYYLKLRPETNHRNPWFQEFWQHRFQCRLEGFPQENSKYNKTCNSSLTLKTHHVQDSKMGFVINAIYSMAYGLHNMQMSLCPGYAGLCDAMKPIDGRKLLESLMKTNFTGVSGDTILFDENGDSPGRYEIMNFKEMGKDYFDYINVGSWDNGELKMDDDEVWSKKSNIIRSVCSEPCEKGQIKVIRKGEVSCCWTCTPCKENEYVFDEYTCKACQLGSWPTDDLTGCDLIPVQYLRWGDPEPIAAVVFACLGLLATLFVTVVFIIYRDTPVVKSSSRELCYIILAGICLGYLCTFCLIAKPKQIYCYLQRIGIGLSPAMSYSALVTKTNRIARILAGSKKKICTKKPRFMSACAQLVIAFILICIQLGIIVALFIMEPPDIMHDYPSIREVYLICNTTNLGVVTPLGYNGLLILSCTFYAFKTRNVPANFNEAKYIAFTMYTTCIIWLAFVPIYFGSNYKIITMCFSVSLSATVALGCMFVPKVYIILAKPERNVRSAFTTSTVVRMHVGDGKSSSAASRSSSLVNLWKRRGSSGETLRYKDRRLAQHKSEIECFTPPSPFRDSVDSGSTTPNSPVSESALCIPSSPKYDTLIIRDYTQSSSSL

Row | EC50 | Structure (SMILES)
1 | 5.6 µM | CCCCc1ccc(N(CC(=O)N2CCN(c3nccnc3C#N)CC2)S(C)(=O)=O)cc1 [Compound 44, N-(4-Butyl-phenyl)-N-{2-(3′-cyano-2,3,5,6-tetrahydro-[1,2]bipyrazinyl-4-yl)-2-oxo-ethyl]-methanesulfonamide]
2 | 3.4 µM | N#Cc1cccnc1N1CCN(C(=O)Cc2ccc(OCc3ccccn3)cc2)CC1 [Compound 45, 2-(4-{2-[4′-(Pyridin-2-ylmethoxy)-phenyl]-acetyl}-piperazin-1-yl)-nicotinonitrile]

Continued, molecule first:

Row | Structure (SMILES) | EC50
3 | CCCCOc1ccc(CC(=O)N2CCN(c3ncccc3C#N)CC2)cc1 [Compound 1, 2-{4-[2-(4-Butoxy-phenyl)-acetyl]-piperazin-l-yl}-nicotinonitrile] | 5.1 µM
4 | N#Cc1cccnc1N1CCN(C(=O)COc2ccccc2)CC1 [Compound 12, 2-[4-(2-Phenoxy-acetyl)-piperazin-1-yl]-nicotinonitrile] | 3.5 µM
5 | CCCOc1ccc(CC(=O)N2CCN(c3ncccc3C#N)CC2)cc1 [Compound 16, 2-{4-[2-(4-Propoxy-phenyl)-acetyl]-piperazin-1-yl}-nicotinonitrile] | 2.8 µM
